Measurements: patent publication US6762207B1, “(E)-styryl sulfone anticancer agents” (priority 1999, dated 2004)

Experiments:
Assay type in all cases: cell-based
Parameters in all cases: dose or concentration left out as unconfirmed
Settings in all cases: 96 hours
[1] = system: breast tumor cell line MCF-7; assay: Trypan blue exclusion viability assay, MCF-7
Experimental: (§1) MCF-7 is estrogen-responsive, while BT-20 is an estrogen-unresponsive cell line. NIH/3T3 and HFL are normal murine and human fibroblasts, respectively. MCF-7, BT-20, DLD-1 and H157 were grown in Dulbecco's modified Eagle's medium (DMEM) containing 10% fetal bovine serum supplemented with penicillin and streptomycin. DU145 was cultured in RPMI with 10% fetal bovine serum containing penicillin and streptomycin. […] All cell cultures were maintained at 37° C. in a humidified atmosphere of 5% CO2. Cells were treated with test compound at 2.5 mM concentration and cell viability was determined after 96 hours by the Trypan blue exclusion method.

[2] = system: prostate tumor cell line DU-145; assay: Trypan blue exclusion viability assay, DU145
Experimental: as §1

[3] = system: colorectal carcinoma cell line DLD-1; assay: Trypan blue exclusion viability assay, DLD-1
Experimental: as §1

[4] = system: non-small cell lung carcinoma cell line H157; assay: Trypan blue exclusion viability assay, H157
Experimental: as §1

[5] = system: breast tumor cell line BT-20; assay: Trypan blue exclusion viability assay, BT20
Experimental: as §1

Compound | Cell death, MCF-7 [1] | Cell death, DU145 [2] | Cell death, DLD-1 [3] | Cell death, H157 [4] | Cell death, BT20 [5]
O=S(=O)(/C=C/c1ccc(F)cc1)Cc1ccc(C(F)(F)F)cc1 [Example 1, (E)-4-Fluorostyryl-4-trifluoromethylbenzylsulfone] | +++ (40-50% = +++) | +++ (40-50% = +++) | +++ (40-50% = +++) | ++ (10-15% = ++) | +++ (40-50% = +++)
O=S(=O)(/C=C/c1ccc(Cl)cc1)Cc1ccc(C(F)(F)F)cc1 [Example 2, (E)-4-Chlorostyryl-4-trifluoromethylbenzylsulfone] | ++ (10-15% = ++) | ++ (10-15% = ++) | ++ (10-15% = ++) | – | ++ (10-15% = ++)
O=S(=O)(/C=C/c1ccc(F)cc1)Cc1ccc(Cl)cc1Cl [Example 4, (E)-4-Fluorostyryl-2,4-dichlorobenzylsulfone] | ++ (10-15% = ++) | ++ (10-15% = ++) | – | + (5-10%: = +) | ++ (10-15% = ++)
O=S(=O)(/C=C/c1ccc(Cl)cc1)Cc1ccc(Cl)cc1Cl [Example 5, (E)-4-Chlorostyryl-2,4-dichlorobenzylsulfone] | +++ (40-50% = +++) | + (5-10%: = +) | ++ (10-15% = ++) | ++ (10-15% = ++) | –
O=S(=O)(/C=C/c1ccc(F)cc1)Cc1ccc(Cl)c(Cl)c1 [Example 6, (E)-4-Fluorostyryl-3,4-dichlorobenzylsulfone] | ++++ (50-60% = ++++) | ++++ (50-60% = ++++) | – | – | ++++ (50-60% = ++++)
N#Cc1ccc(CS(=O)(=O)/C=C/c2ccc(F)cc2)cc1 [Example 10, (E)-4-Fluorostyryl-4-cyanobenzylsulfone] | +++ (40-50% = +++) | ++ (10-15% = ++) | – | +++ (40-50% = +++) | –
N#Cc1ccc(CS(=O)(=O)/C=C/c2ccc(Cl)cc2)cc1 [Example 11, (E)-4-Chlorostyryl-4-cyanobenzylsulfone] | + (5-10%: = +) | + (5-10%: = +) | – | + (5-10%: = +) | –
N#Cc1ccc(CS(=O)(=O)/C=C/c2ccc(Br)cc2)cc1 [Example 12, (E)-4-Bromostyryl-4-cyanobenzylsulfone] | − (0% = −) | − (0% = −) | − (0% = −) | + (5-10%: = +) | –
O=S(=O)(/C=C/c1ccc(F)c(F)c1)Cc1ccc(Cl)cc1 [Example 13, (E)-3,4-Difluorostyryl-4-chlorobenzylsulfone] | − (0% = −) | − (0% = −) | − (0% = −) | − (0% = −) | –
O=S(=O)(/C=C/c1ccc(F)c(Cl)c1)Cc1ccc(Cl)cc1 [Example 14, (E)-3-Chloro-4-fluorostyryl-4-chlorobenzylsulfone] | − (0% = −) | − (0% = −) | − (0% = −) | − (0% = −) | –
O=S(=O)(/C=C/c1ccc(F)cc1Cl)Cc1ccc(Cl)cc1 [Example 15, (E)-2-Chloro-4-fluorostyryl-4-chlorobenzylsulfone] | +++++ (Above 80% = +++++) | +++++ (Above 80% = +++++) | +++++ (Above 80% = +++++) | +++++ (Above 80% = +++++) | –
O=S(=O)(/C=C/c1ccc(Cl)cc1Cl)Cc1ccc(Cl)cc1 [Example 16, (E)-2,4-Dichlorostyryl-4-chlorobenzylsulfone] | ++++ (50-60% = ++++) | +++ (40-50% = +++) | ++++ (50-60% = ++++) | – | –
O=S(=O)(/C=C/c1ccc(Cl)c(Cl)c1)Cc1ccc(Cl)cc1 [Example 17, (E)-3,4-Dichlorostyryl-4-chlorobenzylsulfone] | + (5-10%: = +) | + (5-10%: = +) | + (5-10%: = +) | – | –
O=S(=O)(/C=C/c1cccc(Cl)c1Cl)Cc1ccc(Cl)cc1 [Example 18, (E)-2,3-Dichlorostyryl-4-chlorobenzylsulfone] | + (5-10%: = +) | + (5-10%: = +) | + (5-10%: = +) | – | –
N#Cc1ccc(CS(=O)(=O)/C=C/c2cccc([N+](=O)[O-])c2)cc1 [Example 53, (E)-3-nitrostyryl-4-cyanobenzylsulfone] | – | + (5-10%: = +) | + (5-10%: = +) | + (5-10%: = +) | + (5-10%: = +)
N#Cc1ccc(CS(=O)(=O)/C=C/c2ccc([N+](=O)[O-])cc2)cc1 [Example 54, (E)-4-nitrostyryl-4-cyanobenzylsulfone] | – | ++++ (50-60% = ++++) | ++++ (50-60% = ++++) | ++++ (50-60% = ++++) | ++++ (50-60% = ++++)
Cc1ccc(CS(=O)(=O)/C=C/c2ccc(F)cc2)cc1 [Example 55, (E)-4-fluorostyryl-4-methylbenzylsulfone] | – | + (5-10%: = +) | + (5-10%: = +) | + (5-10%: = +) | + (5-10%: = +)
Cc1ccc(CS(=O)(=O)/C=C/c2ccc(Br)cc2)cc1 [Example 56, (E)-4-bromostyryl-4-methylbenzylsulfone] | – | + (5-10%: = +) | + (5-10%: = +) | + (5-10%: = +) | + (5-10%: = +)
Cc1ccc(CS(=O)(=O)/C=C/c2ccccc2[N+](=O)[O-])cc1 [Example 57, (E)-2-nitrostyryl-4-methylbenzylsulfone] | – | + (5-10%: = +) | + (5-10%: = +) | + (5-10%: = +) | + (5-10%: = +)
Cc1ccc(CS(=O)(=O)/C=C/c2cccc([N+](=O)[O-])c2)cc1 [Example 58, (E)-3-nitrostyryl-4-methylbenzylsulfone] | – | + (5-10%: = +) | + (5-10%: = +) | + (5-10%: = +) | + (5-10%: = +)
Cc1ccc(CS(=O)(=O)/C=C/c2ccc([N+](=O)[O-])cc2)cc1 [Example 59, (E)-4-nitrostyryl-4-methylbenzylsulfone] | – | + (5-10%: = +) | + (5-10%: = +) | + (5-10%: = +) | + (5-10%: = +)
COc1ccc(CS(=O)(=O)/C=C/c2ccc(F)cc2)cc1 [Example 60, (E)-4-fluorostyryl-4-methoxybenzylsulfone] | – | +++++ (Above 80% = +++++) | +++++ (Above 80% = +++++) | +++++ (Above 80% = +++++) | +++++ (Above 80% = +++++)
COc1ccc(CS(=O)(=O)/C=C/c2ccc(Cl)cc2)cc1 [Example 61, (E)-4-chlorostyryl-4-methoxybenzylsulfone] | – | ++++ (50-60% = ++++) | ++++ (50-60% = ++++) | ++++ (50-60% = ++++) | ++++ (50-60% = ++++)
COc1ccc(CS(=O)(=O)/C=C/c2ccc(Br)cc2)cc1 [Example 62, (E)-4-bromostyryl-4-methoxybenzylsulfone] | – | ++++ (50-60% = ++++) | ++++ (50-60% = ++++) | ++++ (50-60% = ++++) | ++++ (50-60% = ++++)
COc1ccc(CS(=O)(=O)/C=C/c2ccccc2[N+](=O)[O-])cc1 [Example 63, (E)-2-nitrostyryl-4-methoxybenzylsulfone] | – | + (5-10%: = +) | + (5-10%: = +) | + (5-10%: = +) | + (5-10%: = +)
COc1ccc(CS(=O)(=O)/C=C/c2cccc([N+](=O)[O-])c2)cc1 [Example 64, (E)-3-nitrostyryl-4-methoxybenzylsulfone] | – | + (5-10%: = +) | + (5-10%: = +) | + (5-10%: = +) | + (5-10%: = +)
COc1ccc(CS(=O)(=O)/C=C/c2ccc([N+](=O)[O-])cc2)cc1 [Example 65, (E)-4-nitrostyryl-4-methoxybenzylsulfone] | – | ++++ (50-60% = ++++) | ++++ (50-60% = ++++) | ++++ (50-60% = ++++) | ++++ (50-60% = ++++)
O=[N+]([O-])c1ccc(CS(=O)(=O)/C=C/c2ccc(Cl)cc2)cc1 [Example 66, (E)-4-chlorostyryl-4-nitrobenzylsulfone] | – | + (5-10%: = +) | + (5-10%: = +) | + (5-10%: = +) | + (5-10%: = +)
O=[N+]([O-])c1ccc(CS(=O)(=O)/C=C/c2ccc(F)cc2)cc1 [Example 67, (E)-4-fluorostyryl-4-nitrobenzylsulfone] | – | + (5-10%: = +) | + (5-10%: = +) | + (5-10%: = +) | + (5-10%: = +)
(E)-4-trifluoromethylstyryl-4-bromoyanobenzylsulfone [Example 51] | – | + (5-10%: = +) | + (5-10%: = +) | + (5-10%: = +) | + (5-10%: = +)
